In patent US20100120850A1, “Quinoline Derivatives, Pharmaceutical Compositions Comprising Them, and Their Use in Treating Central Nervous System and Peripheral Diseases” (priority 2007, published 2010):

Target: T1, NK-3 receptor (Homo sapiens, UniProt P29371)
T1 construct: expressed in transfected cells
T1 sequence (P29371 1-465): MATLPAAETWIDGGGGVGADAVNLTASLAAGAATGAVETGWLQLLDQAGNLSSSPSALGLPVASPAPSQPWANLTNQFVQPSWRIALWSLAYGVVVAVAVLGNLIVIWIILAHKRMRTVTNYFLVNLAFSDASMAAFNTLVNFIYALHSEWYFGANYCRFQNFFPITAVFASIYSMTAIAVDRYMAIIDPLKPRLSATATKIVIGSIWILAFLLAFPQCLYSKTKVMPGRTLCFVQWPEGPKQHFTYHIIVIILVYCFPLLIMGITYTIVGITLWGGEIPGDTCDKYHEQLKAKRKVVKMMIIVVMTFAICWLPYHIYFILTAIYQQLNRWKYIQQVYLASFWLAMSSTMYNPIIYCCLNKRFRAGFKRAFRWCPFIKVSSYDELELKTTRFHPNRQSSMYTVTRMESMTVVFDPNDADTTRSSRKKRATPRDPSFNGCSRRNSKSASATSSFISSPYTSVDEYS
Assay: Assay for NK-3 functional activity (senktide-induced calcium mobilization, FLIPR)
Format: cell-based
Conditions: compared with the other diastereomer (sulfur center) separated by chiral SFC
From the text: A human NK-3 receptor gene was cloned using methods similar to those described for other human NK receptors (Aharony et al., Mol. Pharmacol. 45:9-19, 1994; Caccese et al., Neuropeptides 33, 239-243, 1999). The DNA sequence of the cloned NK-3 receptor differed from the published sequence (Buell et al., FEBS Letts. 299, 90-95, 1992; Huang et al., Biochem. Biophys. Res. Commun 184,966-972, 1992) having a silent single T>C base change at nucleotide 1320 of the coding sequence. Since the change is silent, the cloned gene provides a primary amino acid sequence for the encoded NK-3 receptor protein identical to the published sequence. […]
Generally, NK-3 functional activity may be assessed by using calcium mobilization assays in stable NK-3r-expressing cell lines. […] Agonists may be added to the cells and fluorescence responses continuously recorded for up to 5 min. […] The action of agonists may be assessed by observing their intrinsic activity in such a system.
NK-3 receptor expressing CHO cells were maintained in growth media (Ham's F12 medium, 10% FBS, 2 mM L-glutamine, and […] Hygromycin B). […] To quantify NK-3 receptor-induced calcium mobilization, cells were first washed with assay buffer consisting of Hanks' Balanced Salt Solution, 15 mM HEPES, and 2.5 mM probenecid, pH 7.4. […] The resulting data was analyzed using XLfit software (IDBS manufacturer) to determine EC50 and IC50 values.

Row | Compound | biological activity when tested in the assay for NK-3 functional activity
1 | CC[C@H](NC(=O)c1c([S+](C)[O-])c(-c2ccccc2)nc2ccccc12)c1ccccc1 (single isomer, unassigned) [Example 2 first eluting compound] | substantially greater biological activity
2 | C[S+]([O-])c1c(-c2ccccc2)nc2ccccc2c1C(=O)N[C@H](c1ccccc1)C1CC1 (single isomer, unassigned) [Example 8 second eluting compound] | substantially greater biological activity
